# ChEMBL document CHEMBL1201862, “PubChem BioAssay data set” (2004)
#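 Grown in 96-well plates, cells were treated for 48 hours with each compound at five concentrations. Insufficient inhibition: endpoint recorded as highest concentration tested. GI50 marks 50% less growth.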 Active and inactive are the calls of the source. Rule as the data show it: active = GI50 up to about 1.1 µM and inactive = higher.
# What was measured:
# Assay in all cases: NCI tumour cell line growth inhibition, 48 h
# SNB-75 = system: SNB-75
# HOP-62 = system: HOP-62
# OVCAR-4 = system: OVCAR-4
# K562 = system: K562
# KM12 = system: KM12
# HOP-92 = system: HOP-92
# CAKI-1 = system: CAKI-1
# ACHN = system: ACHN
# SN12C = system: SN12C
# IGROV-1 = system: IGROV-1
# LOX IMVI = system: LOX IMVI
# HCT-116 = system: HCT-116
# SK-MEL-2 = system: SK-MEL-2
# OVCAR-8 = system: OVCAR-8
# HCC 2998 = system: HCC 2998
# RXF 393 = system: RXF 393
# SR = system: SR
Compound,GI50 (SNB-75),GI50 (HOP-62),GI50 (OVCAR-4),GI50 (K562),GI50 (KM12),GI50 (HOP-92),GI50 (CAKI-1),GI50 (ACHN),GI50 (SN12C),GI50 (IGROV-1),GI50 (LOX IMVI),GI50 (HCT-116),GI50 (SK-MEL-2),GI50 (OVCAR-8),GI50 (HCC 2998),GI50 (RXF 393),GI50 (SR)
CC12CC3CC(C1)CC(N=[N+]=[N-])(C3)C2,> 100 µM (inactive),> 100 µM (inactive),> 100 µM (inactive),> 100 µM (inactive),> 100 µM (inactive),> 100 µM (inactive),> 100 µM (inactive),> 100 µM (inactive),> 100 µM (inactive),> 100 µM (inactive),> 100 µM (inactive),> 100 µM (inactive),> 100 µM (inactive),> 100 µM (inactive),> 100 µM (inactive),,
N#CC1C(=O)C(=O)N(c2ccccc2)C1=O (stereo not drawn),81.3 µM (inactive),> 100 µM (inactive),> 100 µM (inactive),> 100 µM (inactive),> 100 µM (inactive),> 100 µM (inactive),> 100 µM (inactive),> 100 µM (inactive),> 100 µM (inactive),> 100 µM (inactive),> 100 µM (inactive),> 100 µM (inactive),> 100 µM (inactive),> 100 µM (inactive),> 100 µM (inactive),> 100 µM (inactive),
Clc1ccccc1C(n1ncc2ccccc21)n1ncc2ccccc21,17 µM (inactive),> 100 µM (inactive),51.6 µM (inactive),28.4 µM (inactive),25.7 µM (inactive),24.3 µM (inactive),30.6 µM (inactive),56.5 µM (inactive),65.2 µM (inactive),> 10 µM (inactive),49.9 µM (inactive),25.6 µM (inactive),33.3 µM (inactive),> 100 µM (inactive),31.5 µM (inactive),28.3 µM (inactive),27 µM (inactive)
COc1ccc(C(c2ccc(C(C)C)cc(=O)c2O)c2ccc3cccnc3c2O)cc1 (stereo not drawn),0.155 µM (active),0.387 µM (active),2.88 µM (inactive),0.399 µM (active),1.45 µM (inactive),0.235 µM (active),1.79 µM (inactive),0.274 µM (active),0.415 µM (active),0.425 µM (active),0.499 µM (active),0.318 µM (active),2.02 µM (inactive),1.08 µM (active),,,1 µM (active)
O=C1C(=C2CCCC2)CCC1CN1CCCCC1 (stereo not drawn),0.489 µM (active),,16.5 µM (inactive),16.3 µM (inactive),18.6 µM (inactive),19.5 µM (inactive),,,16.8 µM (inactive),18.4 µM (inactive),,18.6 µM (inactive),16.5 µM (inactive),21.5 µM (inactive),16.3 µM (inactive),16.4 µM (inactive),20.7 µM (inactive)
Clc1cc2nsnc2c(Cl)n1,,> 100 µM (inactive),17.1 µM (inactive),5.41 µM (inactive),47.2 µM (inactive),16.6 µM (inactive),10.8 µM (inactive),32.5 µM (inactive),,26.2 µM (inactive),33 µM (inactive),,17.2 µM (inactive),,> 100 µM (inactive),,
NC1C(O)C(O)C(CO)OC1n1cc(F)c(=O)[nH]c1=O (stereo not drawn),91.2 µM (inactive),,> 100 µM (inactive),,> 100 µM (inactive),> 100 µM (inactive),> 100 µM (inactive),> 100 µM (inactive),> 100 µM (inactive),,> 100 µM (inactive),> 100 µM (inactive),> 100 µM (inactive),,> 100 µM (inactive),> 100 µM (inactive),> 100 µM (inactive)
CN1Cc2cc3c(cc2-c2ccccc21)OCO3,> 100 µM (inactive),,> 100 µM (inactive),> 100 µM (inactive),> 100 µM (inactive),> 100 µM (inactive),,> 100 µM (inactive),> 100 µM (inactive),> 100 µM (inactive),> 100 µM (inactive),> 100 µM (inactive),> 100 µM (inactive),> 100 µM (inactive),> 100 µM (inactive),> 100 µM (inactive),> 100 µM (inactive)
Cc1cc(N(CCC#N)CCC#N)ccc1/C=C(\NC(=O)/C=C/c1ccccc1)C(=O)Nc1ccccc1Cl,,,> 100 µM (inactive),> 100 µM (inactive),> 100 µM (inactive),29.2 µM (inactive),78.7 µM (inactive),> 100 µM (inactive),> 100 µM (inactive),> 100 µM (inactive),> 100 µM (inactive),> 100 µM (inactive),> 100 µM (inactive),> 100 µM (inactive),> 100 µM (inactive),> 100 µM (inactive),
OCCN1CCN(CCO)Cc2ccccc2OCCOc2ccccc2C1,33 µM (inactive),> 100 µM (inactive),> 100 µM (inactive),> 100 µM (inactive),> 100 µM (inactive),> 100 µM (inactive),> 100 µM (inactive),> 100 µM (inactive),> 100 µM (inactive),> 100 µM (inactive),29.8 µM (inactive),51.6 µM (inactive),> 100 µM (inactive),> 100 µM (inactive),,> 100 µM (inactive),> 100 µM (inactive)
COc1ccc(N(CC(=O)O)S(=O)(=O)c2ccccc2)cc1,,,> 100 µM (inactive),> 100 µM (inactive),> 100 µM (inactive),> 100 µM (inactive),> 100 µM (inactive),> 100 µM (inactive),> 100 µM (inactive),> 100 µM (inactive),> 100 µM (inactive),,> 100 µM (inactive),> 100 µM (inactive),,> 100 µM (inactive),
COC(=O)C1Cc2c([nH]c3ccccc23)C=N1 (stereo not drawn),60.8 µM (inactive),> 100 µM (inactive),> 100 µM (inactive),> 100 µM (inactive),94.2 µM (inactive),> 100 µM (inactive),> 100 µM (inactive),> 100 µM (inactive),> 100 µM (inactive),> 100 µM (inactive),51.8 µM (inactive),> 100 µM (inactive),,> 100 µM (inactive),> 100 µM (inactive),> 100 µM (inactive),> 100 µM (inactive)
C/C=C(\C)C(=O)OC1C2C(C)=CC(=O)C(O)C2(C)C2C3(O)OCC24C1OC(=O)C(OC(C)=O)C4C(C)C3O (stereo not drawn),0.0389 µM (active),0.0375 µM (active),0.11 µM (active),0.0375 µM (active),0.0375 µM (active),0.0388 µM (active),0.197 µM (active),,0.0741 µM (active),0.0375 µM (active),0.0375 µM (active),0.0375 µM (active),0.0377 µM (active),0.0396 µM (active),0.0415 µM (active),0.0375 µM (active),
C=CC1(C)CCC2=C(CCC3C(C)(C(=O)OC)CCCC23C)C1=O (stereo not drawn),,16.8 µM (inactive),14.7 µM (inactive),38.8 µM (inactive),17.4 µM (inactive),,30.3 µM (inactive),17.7 µM (inactive),19 µM (inactive),18.9 µM (inactive),18.5 µM (inactive),17.3 µM (inactive),17.9 µM (inactive),29.8 µM (inactive),,,19 µM (inactive)
COc1cc(-c2cc(O)c3cc4c(cc3n2)OCO4)cc(OC)c1OC,> 100 µM (inactive),24.5 µM (inactive),> 100 µM (inactive),> 100 µM (inactive),> 100 µM (inactive),20.7 µM (inactive),> 100 µM (inactive),34.7 µM (inactive),70.1 µM (inactive),> 100 µM (inactive),59.3 µM (inactive),,92.7 µM (inactive),75.9 µM (inactive),> 100 µM (inactive),,71 µM (inactive)
COC(=O)c1sc(=O)n(-c2ccccc2)c1SCc1ccccc1,> 100 µM (inactive),> 100 µM (inactive),> 100 µM (inactive),> 100 µM (inactive),> 100 µM (inactive),30.1 µM (inactive),,> 100 µM (inactive),> 100 µM (inactive),> 100 µM (inactive),> 100 µM (inactive),> 100 µM (inactive),> 100 µM (inactive),> 100 µM (inactive),> 100 µM (inactive),> 100 µM (inactive),> 100 µM (inactive)
CCOC(=O)CSC(=O)NCCCl,> 100 µM (inactive),> 100 µM (inactive),> 100 µM (inactive),,> 100 µM (inactive),> 100 µM (inactive),> 100 µM (inactive),> 100 µM (inactive),> 100 µM (inactive),> 100 µM (inactive),,> 100 µM (inactive),> 100 µM (inactive),> 100 µM (inactive),> 100 µM (inactive),> 100 µM (inactive),
COc1ccc(C(=O)C(C(=O)C(=O)NC2C3CC4CC(C3)CC2C4)c2ccc(OC)cc2)cc1 (stereo not drawn),16.6 µM (inactive),> 100 µM (inactive),> 100 µM (inactive),> 100 µM (inactive),> 100 µM (inactive),> 100 µM (inactive),> 100 µM (inactive),> 100 µM (inactive),> 100 µM (inactive),> 100 µM (inactive),> 100 µM (inactive),> 100 µM (inactive),> 100 µM (inactive),> 100 µM (inactive),> 100 µM (inactive),,> 100 µM (inactive)
CCOC(=O)C1S/C(=N\c2ccc(Cl)cc2Cl)N=C1C (stereo not drawn),26.1 µM (inactive),51.9 µM (inactive),20.8 µM (inactive),> 100 µM (inactive),> 100 µM (inactive),20.6 µM (inactive),66.2 µM (inactive),95.1 µM (inactive),> 100 µM (inactive),> 100 µM (inactive),74.5 µM (inactive),65.6 µM (inactive),61.5 µM (inactive),74.6 µM (inactive),> 100 µM (inactive),27.5 µM (inactive),
